Entries after “also recorded” stand apart in the source; their conditions may differ.
What was measured:
[1] = system: multifunction oxidase (MFO) enzymes; details: cited from earlier work
[2] = cited from earlier work
[3] = system: animals; details: prior art; cited from earlier work
[4] = system: mosquito larvae; assay: Toxicity to mosquito larvae (general statement); details: in vivo
Experimental: (§1) The compounds of the present invention were tested for insecticidal activity by standard methods, and compared with the insecticidal activities of DDT and symmetrical analogs of DDT, such as methoxychlor. Toxicological methods for the determination of the topical LD50 values to adult female SNAIDM and PSR houseflies, Musca domestica L. and to Phormia regina, and LC50 values to clex pipiens quinquefas ciatus Say, and Anopheles albimanus Weid mosquitoes were described by Metcalf et al., 44 Bull. World Health Org. 363 (1971). The methods for evaluation of metabolism by mouse liver homogenate and by female RSP housefly and salt-marsh caterpillar larvae Estigmene acrea Drury, were described by Metcalf et al., 5 J. Environ. Sci. Tech. 709 (1971).

[5] = system: Culex fatigans larvae; assay: Toxicity to Culex mosquito larvae; assay type: in vivo
Experimental: as §1

[6] = system: Anopheles albimanus larvae; assay: Toxicity to Anopheles albimanus mosquito larvae; assay type: in vivo
Experimental: as §1

[7] = system: Phormia regina; assay: Topical toxicity to Phormia regina, alone and with piperonyl butoxide; assay type: in vivo; details: for LD50: Phormia regina, alone; for LD50 / Topical LD50, Phormia regina, pb: topical; for Topical LD50, Phormia regina, pb: synergized with piperonyl butoxide (pb); for SR (synergistic ratio), Phormia regina: LD50 alone / LD50 synergized with piperonyl butoxide; for toxicity to Phormia: in vivo
Experimental: as §1
(§2) The synergistic ratios or SR values (LD50 alone/ LD50 synergized with piperonyl butoxide) shown in Table II indicate the role of the multifunction oxidase (MFO) in detoxifying the individual compounds. Since piperonyl butoxide serves to block the action of MFO, the synergized LD50 values express the intrinsic toxicity of the compounds. With the detoxifying action of MFO enzymes blocked, the intrinsic toxicity of the compounds can thus be measured.

[8] = system: Musca domestica Rsp; assay: Topical toxicity to adult female Rsp (resistant) houseflies, alone and with piperonyl butoxide; assay type: in vivo, Musca domestica L.; details: for SR (synergistic ratio), Musca domestica Rsp: LD50 alone / LD50 synergized with piperonyl butoxide; for LD50: Musca domestica, alone; for LD50 / Topical LD50, Musca domestica Rsp, pb: Rsp strain, topical; for Topical LD50, Musca domestica Rsp, pb: synergized with piperonyl butoxide (pb)
Experimental: as §1, §2

[9] = system: Musca domestica SNAIDM; assay: Topical toxicity to adult female SNAIDM (susceptible) houseflies, alone and with piperonyl butoxide; assay type: in vivo, Musca domestica L.; details: for SR (synergistic ratio), Musca domestica SNAIDM: LD50 alone / LD50 synergized with piperonyl butoxide; for LD50: Musca domestica, alone; for LD50 / Topical LD50, Musca domestica SNAIDM, pb: SNAIDM strain, topical; for Topical LD50, Musca domestica SNAIDM, pb: synergized with piperonyl butoxide (pb)
Experimental: as §1, §2

[10] = system: insects; assay: General insecticidal activity (house flies, blow fly, mosquitoes and other insects); assay type: in vivo; details: comparison among the 9 ethers of Table II
Source text: It has been found from metabolic studies on insects, and mice, using a model ecosystem and the methods described in Kapoor, et al., 18(6) J.Agr., Food Chem. 1145 (1970), Metcalf, et al., J. Environ. Sci. Technol. 709 (1971) and also in the copending application of Metcalf et al., "Insecticidal Biodegradable Analogues of DDT", Ser. No. 147,241, filed May 26, 1971, and having a common assignee with the present application, that certain p,p'-disubstituted α-trichloromethylbenzylphenyl ethers with various substituent groups are readily attacked by multifunction oxidase (MFO) enzymes, and thus are substantially biodegradable.
as §1

[11] = system: insects; details: relative to DDT where stated; cited from earlier work

Row | SMILES | biodegradability / attack by MFO enzymes of prior art compounds [1] | lipid solubility [2] | water solubility [2] | accumulation in animal tissues [3] | toxicity to mosquito larvae [4] | LC50 Culex fatigans larvae [5] | LC50 Anopheles albimanus larvae [6] | LD50 [7] | Topical LD50, Phormia regina, pb [7] | SR (synergistic ratio), Musca domestica Rsp [8] | LD50 [8] | Topical LD50, Musca domestica Rsp, pb [8] | SR (synergistic ratio), Musca domestica SNAIDM [9] | LD50 [9] | Topical LD50, Musca domestica SNAIDM, pb [9] | SR (synergistic ratio), Phormia regina [7] | intrinsic toxicity / insecticidal effectiveness [10] | toxicity to Phormia [7] | housefly LD50 ([9]; comparison among compounds of Table II) | insecticidal activity of prior art compounds [11]
1 | Clc1ccc(C(c2ccc(Cl)cc2)C(Cl)Cl)cc1 [DDD, 1,1-dichloro-2,2-bis(p-chlorophenyl)ethane] | do not function on DDT and its metabolic derivatives DDE and DDD (or TDE) | – | – | – | – | – | – | – | – | – | – | – | – | – | – | – | – | – | – | –
2 | ClC(Cl)=C(c1ccc(Cl)cc1)c1ccc(Cl)cc1 [DDE, 1,1-dichloro-2,2-bis(p-chlorophenyl) ethylene] | do not function on DDT and its metabolic derivatives DDE and DDD (or TDE) | – | – | – | – | – | – | – | – | – | – | – | – | – | – | – | – | – | – | –
3 | Clc1ccc(C(c2ccc(Cl)cc2)C(Cl)(Cl)Cl)cc1 [DDT, 1,1, 1 trichloro-2,2-bis(p-chlorophenyl)ethane] | – | high lipid solubility | very low water solubility | accumulation in the fatty or lipid tissues of animals | – | – | – | – | – | – | – | – | – | – | – | – | – | – | – | –
4 | Clc1ccc(OC(c2ccc(Cl)cc2)C(Cl)(Cl)Cl)cc1 (stereo not drawn) [I, α-trichloromethyl-p-chlorobenzyl p-chlorophenyl ether] | – | – | – | – | the most toxic | 0.035 ppm | 0.014 ppm | > 250 mg/kg | > 250 μg per g | > 3.6 | > 500 mg/kg | 180 μg per g | 1.0 | 90 mg/kg | 90 μg per g | – | – | – | – | –
5 | Cc1ccc(OC(c2ccc(C)cc2)C(Cl)(Cl)Cl)cc1 (stereo not shown) [III] | – | – | – | – | – | 0.12 ppm | 0.18 ppm | 135 mg/kg | 100 μg per g | > 3 | > 500 mg/kg | 145 μg per g | 2.9 | 265 mg/kg | 90 μg per g | 1.35 | – | – | – | –
6 | CCOc1ccc(OC(c2ccc(OCC)cc2)C(Cl)(Cl)Cl)cc1 (stereo not shown) [IV] | – | – | – | – | – | 0.11 ppm | 0.07 ppm | 16.5 mg/kg | 16.5 μg per g | 1.7 | 42 mg/kg | 24.5 μg per g | 2.1 | 27 mg/kg | 13.0 μg per g | 1.0 | highest intrinsic toxicity | quite toxic to Phormia | – | –
7 | COc1ccc(C(Oc2ccc(C)cc2)C(Cl)(Cl)Cl)cc1 (stereo not shown) [IX] | – | – | – | – | – | 0.65 ppm | > 1.0 ppm | > 250 mg/kg | > 250 μg per g | > 4 | > 500 mg/kg | 135 μg per g | > 13 | > 500 mg/kg | 39.0 μg per g | – | – | – | – | –
8 | CCOc1ccc(C(Oc2ccc(Cl)cc2)C(Cl)(Cl)Cl)cc1 (stereo not drawn) [VI, α-trichloromethyl-p-ethoxybenzyl p-chlorophenyl ether] | – | – | – | – | only slightly less toxic | 0.067 ppm | 0.044 ppm | 31.2 mg/kg | 31.2 μg per g | 2.5 | 31 mg/kg | 12.5 μg per g | 1.9 | 18.5 mg/kg | 9.5 μg per g | 1.0 | highest intrinsic toxicity; also recorded: most effective insecticide generally | only slightly less toxic to Phormia than the p,p'-diethoxy compound IV | lowest LD50 values to the housefly | –
9 | CCOc1ccc(C(Oc2ccc(C)cc2)C(Cl)(Cl)Cl)cc1 (stereo not shown) [VIII] | – | – | – | – | – | 0.18 ppm | 0.066 ppm | 46.2 mg/kg | 30.0 μg per g | 2.9 | 65 mg/kg | 22.0 μg per g | 3.5 | 72.5 mg/kg | 20.5 μg per g | 1.5 | – | – | – | –
10 | CCOc1ccc(C(Oc2ccc(OC)cc2)C(Cl)(Cl)Cl)cc1 (stereo not shown) [VII] | – | – | – | – | – | 0.14 ppm | 0.034 ppm | 30 mg/kg | 16.0 μg per g | 6.4 | 90 mg/kg | 14.0 μg per g | 9.0 | 45 mg/kg | 5.0 μg per g | 1.9 | highest intrinsic toxicity | quite toxic to Phormia | – | –
11 | COc1ccc(C(Oc2ccc(Cl)cc2)C(Cl)(Cl)Cl)cc1 (stereo not shown) [V] | – | – | – | – | – | 0.14 ppm | 0.038 ppm | 205 mg/kg | 115 μg per g | 1.6 | 130 mg/kg | 82.5 μg per g | 6.3 | 108 mg/kg | 17.0 μg per g | 1.8 | – | – | – | –
12 | CSc1ccc(C(c2ccc(SC)cc2)C(Cl)(Cl)Cl)cc1 [methiochlor, 1,1,1-trichloro-2,2-bis-(p-methiophenyl) ethane] | readily attacked by MFO enzymes | – | – | – | – | – | – | – | – | – | – | – | – | – | – | – | – | – | – | considerably less insecticidal activity than DDT towards other species of insects
13 | COc1ccc(C(c2ccc(OC)cc2)C(Cl)(Cl)Cl)cc1 [methoxychlor, 1,1,1-trichloro-,2,2-bis(p-methoxyphenyl)ethane] | readily attacked by MFO enzymes | – | – | not generally accumulated in animal tissues | – | – | – | – | – | – | – | – | – | – | – | – | – | – | – | considerably less insecticidal activity than DDT towards other species of insects
14 | Cc1ccc(C(c2ccc(C)cc2)C(Cl)(Cl)Cl)cc1 [methylchlor, 1,1,1-trichloro-2,2-bis(p-methylphenyl)ethane] | – | – | – | – | – | – | – | – | – | – | – | – | – | – | – | – | – | – | – | considerably less insecticidal activity than DDT towards other species of insects

From US3966824A, “P,P'-Disubstituted α-trichloromethylbenzylphenyl ethers” (University of Illinois Foundation, priority 1974, dated 1976)
